The values below are quoted from earlier work in patent US20110200560A1, “NON-IONIC SELF-ASSEMBLING PEPTIDES AND USES THEREOF” (MASSACHUSETTS INSTITUTE OF TECHNOLOGY, priority 2009, published 2011).

Like-named read-outs stand apart in the source and are kept apart here.

Series [1] deals with human umbilical vein endothelial cells (HIVEC).
In series [2] the test system is human umbilical vein endothelial cell (HUVEC). The conditions noted are these: from RADA 16-I scaffold, without additional soluble growth factors.

With AASIKVAVSADR (Mammalian), the “activity of neurite extension by PC12 cells” value with PC12 cells is given as “promoted activity of neurite extension”.

As for “CSRARKQAASIKVAVSADR (Mammalian) [Laminin-1 peptide]”, the “degradation of Matrigel matrix by human umbilical vein endothelial cells” value in series [1] is “induced degradation of Matrigel matrix”.

On to KAFDITYVRLKF (Mammalian), for which, in the series on HUVEC, the HUVEC adhesion result was “promoted” and the HUVEC tube formation entry was “promoted”. Moreover, in the series on neuronal cell, the neurite outgrowth entry is reported as “promoted” and the neuronal cell adhesion entry is recorded as “promoted”.

Take PDSGR (Mammalian): the cell adhesion entry in the series on cell adhesion is on record as “promoted cell adhesion”.

For the substance “RAD/KLT: RADA16 peptide scaffold containing motif from vascular endothelial growth factor (KLTWQELYQLKYKGI) (SEQ ID NO: 78) (Mammalian)”, the “HUVEC unidirectional migration in response to functional peptide scaffolds” value in series [2] is reported as “directionally migrated”; in series [2] (listed as KLT) it was “induced cell migration”.

On to “RAD/PRG: RADA16 peptide scaffold containing active motif with 2 units RGD motif (PRGDSGYRGDS) (SEQ ID NO: 77) (Mammalian)”, for which the figures for the “HUVEC unidirectional migration in response to functional peptide scaffolds” value in series [2] and in series [2] (listed as PRG) were “directionally migrated” and “induced cell migration”, respectively.

As to RYVVLPR (Mammalian), in the series on cell adhesion, the cell adhesion result is reported as “promoted cell adhesion”.

Turning to YIGSR (Mammalian), the cell adhesion result in the series with cell adhesion is on record as “promoted cell adhesion”.
